Measurements taken from patent US20110110891A1, “Methods of Treating Hepatitis C Virus Infection” (priority 2008, published 2011).

Tests used:
HCV [1] = experiment: HCV RNA in supernatant of eGFP-Jc1 transfected Huh7.5 cells (qRT-PCR); type: cell-based, Hepatitis C virus; details: 10 μM, Day 3
Experimental: (§1) Day 0: Huh7.5 cells were transfected with an eGFP-Jc1 reporter construct RNA via electroporation (10 μg RNA per 4×10^6 cells). The eGFP-Jc1 reporter construct is a modified version of the Jc1 (J6/C3 chimera) described by Pietschmann et al. (2006) PNAS 103(19): 7408-7413, in which an eGFP (enhanced green fluorescent protein)-IRES (internal ribosomal entry site) cassette has been inserted between the 5′UTR and the open reading frame of the Jc1 construct.
(§2) Transfected cells were then plated at 2×10^6 cells per T75 flask.
(§3) Day 1: The cells were washed 3 times and treated with 10 μl dimethylsulfoxide (DMSO) (control), 10 μM ERK Inhibitor II (FR180204Calbiochem) or 10 μM U0126 (Promega).
(§4) Day 3: The transfected Huh7.5 cells and the supernatant were harvested. The harvested cells and the supernatant were analyzed by quantitative reverse transcription-polymerase chain reaction (qRT-PCR) for levels of HCV RNA
(§5) Viral RNA in culture supernatants was isolated using RNA STAT-50 LS REAGENT (Tel Test). total cellular RNA or 10 μl of RNA of culture supernatant was used for cDNA synthesis using SuperScript III reverse transcriptase (Invitrogen) and random hexamer primers. Viral RNA levels were measured by quantitative real-time PCR using Taqman probes and corresponding primers.

HCV [2] = experiment: Intracellular HCV RNA in eGFP-Jc1 transfected Huh7.5 cells (qRT-PCR); type: cell-based, Hepatitis C virus; details: 10 μM, Day 3
Experimental: as §1, with “The” for “Day 0: Huh7.5 cells were transfected with an eGFP-Jc1 reporter construct RNA via electroporation (10 μg RNA per 4×10^6 cells). The”
as §2, §3, §4
Total RNA was extracted from transfected cells using RNA STAT-60 REAGENT (Tel Test).
as §5

ERK-2 = ERK-2 (Homo sapiens, UniProt P28482); details: cited from earlier work
MEK-1 = MEK-1 (Homo sapiens, UniProt Q02750); details: in vitro; cited from earlier work
MEK 1/2 = details: cited from earlier work
Mek = details: cited from earlier work
ERK = details: cited from earlier work
c-Src = c-Src (Homo sapiens, UniProt P12931); details: cited from earlier work
cdks = details: cited from earlier work
PI 3-kinase γ = PI 3-kinase γ (Homo sapiens, UniProt P48736); details: cited from earlier work
HCV [3] = details: 10 μM, 1 h pretreatment, anti-CD81 single-round infection
Experimental: Virus: Transfection of Huh7.5 cells with eGFP-Jc1 reporter construct RNA via electroporation (10 μg RNA per 4×10^6 cells)
Harvest virus in the supernatant (Filter & Concentrate using Amicon MWCO 100): conc 10 ml to 200 μl after 3 days
Day 0: Plate Huh7.5 at 1×10^4 cells per well […] (24 well plate)
Day 1: Pretreat cells with 10 μl DMSO or 10 μM U0126 for 1 h
Infection with 50 μl conc. virus per well for 3 h at 37° C.
Addition of 10 μg/ml anti-CD81 antibody (α-CD81) for single-round infection
Day 4: Harvest infected cells for FACS analysis.

Chain of MEK-1 (Q02750 whole entry, species assumed): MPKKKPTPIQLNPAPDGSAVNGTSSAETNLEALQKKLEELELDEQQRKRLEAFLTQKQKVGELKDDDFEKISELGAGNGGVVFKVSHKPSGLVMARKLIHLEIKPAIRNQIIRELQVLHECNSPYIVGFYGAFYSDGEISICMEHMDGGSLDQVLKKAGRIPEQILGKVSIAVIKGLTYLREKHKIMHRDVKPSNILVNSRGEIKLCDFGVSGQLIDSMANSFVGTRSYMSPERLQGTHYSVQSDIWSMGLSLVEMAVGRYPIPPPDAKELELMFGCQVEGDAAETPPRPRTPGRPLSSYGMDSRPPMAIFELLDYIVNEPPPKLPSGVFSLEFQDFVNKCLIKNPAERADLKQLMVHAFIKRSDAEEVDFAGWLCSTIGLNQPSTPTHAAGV
Chain of ERK-2 (P28482 whole entry, species assumed): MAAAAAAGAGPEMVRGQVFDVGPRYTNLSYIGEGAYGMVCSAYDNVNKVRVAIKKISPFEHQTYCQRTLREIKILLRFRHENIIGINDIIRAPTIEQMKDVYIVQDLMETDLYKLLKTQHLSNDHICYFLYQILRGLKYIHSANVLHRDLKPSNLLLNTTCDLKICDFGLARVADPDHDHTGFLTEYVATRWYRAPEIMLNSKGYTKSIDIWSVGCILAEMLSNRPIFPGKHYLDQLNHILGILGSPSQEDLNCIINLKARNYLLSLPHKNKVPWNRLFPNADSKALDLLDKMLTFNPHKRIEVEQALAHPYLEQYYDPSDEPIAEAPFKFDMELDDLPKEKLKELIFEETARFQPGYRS
Chain of c-Src (P12931 whole entry, species assumed): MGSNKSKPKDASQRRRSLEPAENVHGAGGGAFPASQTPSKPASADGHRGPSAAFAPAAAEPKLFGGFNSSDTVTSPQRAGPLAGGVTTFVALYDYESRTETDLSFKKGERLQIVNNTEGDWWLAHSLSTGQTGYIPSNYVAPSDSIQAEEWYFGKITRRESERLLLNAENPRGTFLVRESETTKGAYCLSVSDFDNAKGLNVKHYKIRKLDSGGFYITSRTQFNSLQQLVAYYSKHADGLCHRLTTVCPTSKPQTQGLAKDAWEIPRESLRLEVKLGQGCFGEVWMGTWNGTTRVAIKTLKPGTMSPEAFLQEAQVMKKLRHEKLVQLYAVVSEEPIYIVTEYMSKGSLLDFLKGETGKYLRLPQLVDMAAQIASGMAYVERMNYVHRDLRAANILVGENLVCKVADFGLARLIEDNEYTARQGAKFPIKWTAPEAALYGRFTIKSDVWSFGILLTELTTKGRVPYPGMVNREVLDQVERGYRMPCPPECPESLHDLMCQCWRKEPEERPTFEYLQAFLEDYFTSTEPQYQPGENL
Chain of PI 3-kinase γ (P48736 whole entry): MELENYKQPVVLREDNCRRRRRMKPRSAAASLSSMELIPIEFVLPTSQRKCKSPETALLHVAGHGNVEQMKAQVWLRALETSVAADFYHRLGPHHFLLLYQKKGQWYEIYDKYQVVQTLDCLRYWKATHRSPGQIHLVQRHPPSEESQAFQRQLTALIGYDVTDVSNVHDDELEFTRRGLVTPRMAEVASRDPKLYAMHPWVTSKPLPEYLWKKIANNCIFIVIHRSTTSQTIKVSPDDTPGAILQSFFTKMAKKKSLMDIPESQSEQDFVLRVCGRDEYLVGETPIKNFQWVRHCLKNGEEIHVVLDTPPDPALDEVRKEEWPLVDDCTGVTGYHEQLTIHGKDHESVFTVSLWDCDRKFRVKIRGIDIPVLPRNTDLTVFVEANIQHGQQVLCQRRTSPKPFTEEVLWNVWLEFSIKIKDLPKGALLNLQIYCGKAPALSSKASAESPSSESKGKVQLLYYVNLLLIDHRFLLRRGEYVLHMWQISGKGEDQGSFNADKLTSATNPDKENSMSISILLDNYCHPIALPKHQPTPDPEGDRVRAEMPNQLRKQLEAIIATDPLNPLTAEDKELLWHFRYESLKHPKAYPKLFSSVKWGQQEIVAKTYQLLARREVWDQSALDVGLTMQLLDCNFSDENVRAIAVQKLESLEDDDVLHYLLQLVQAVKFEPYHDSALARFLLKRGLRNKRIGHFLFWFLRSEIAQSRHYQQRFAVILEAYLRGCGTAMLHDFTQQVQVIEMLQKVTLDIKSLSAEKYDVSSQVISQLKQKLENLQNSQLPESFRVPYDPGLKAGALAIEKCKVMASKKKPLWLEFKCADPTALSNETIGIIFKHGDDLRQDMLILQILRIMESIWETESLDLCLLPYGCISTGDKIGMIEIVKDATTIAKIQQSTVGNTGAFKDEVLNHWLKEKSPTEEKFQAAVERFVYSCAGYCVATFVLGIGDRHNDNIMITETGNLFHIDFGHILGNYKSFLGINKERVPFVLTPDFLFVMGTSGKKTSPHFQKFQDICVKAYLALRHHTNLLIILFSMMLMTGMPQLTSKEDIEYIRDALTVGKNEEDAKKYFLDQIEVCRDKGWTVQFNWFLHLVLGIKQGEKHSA

## Nc1n[nH]c2nnc(-c3c(-c4ccccc4)nn4ccccc34)cc12 [FR180204, 5-(2-phenylpyrazolo[1,5-a]pyridin-3-yl)-1H-pyrazolo[3,4-c]pyridazin-3-amine]
HCV [1]
  decrease in number of HCV copies per ml supernatant compared with control treated cells: ~50%
HCV [2]
  level of intracellular HCV RNA per μg total RNA: increased

## Cc1cc(O)c2c(=O)c3c(O)cc(O)c4c5c(O)cc(O)c6c(=O)c7c(O)cc(C)c8c1c2c(c34)c(c78)c65 [Hypericin]
ERK-2
  IC50: 0.004 µM

## COc1cc(O)c2c(c1)/C=C/C[C@]1(O)C(C=CC(=O)[C@H]1O)[C@H](C)OC2=O (stereo partly drawn) [L-783,277]
MEK-1
  IC50: 0.004 µM

## Cc1cc(I)ccc1Nc1c(C(=O)NOCC2CC2)cc(F)c(F)c1F [PD198306, N-(Cyclopropylmethoxy)-3,4,5-trifluoro-2-[(4-iodo-2-methylphenyl)amino]-benzamide]
MEK 1/2
  concentration inhibiting isolated enzyme: 8 nM
Mek
  concentrations inhibiting Mek activity in synovial fibroblasts: 30 to 100 nM
ERK
  IC50: > 1 µM
c-Src
  IC50: > 4 µM
cdks
  IC50: > 4 µM
PI 3-kinase γ
  IC50: > 10 µM

## COc1cc(O)c2c(c1)/C=C/C[C@@]1(O)C(C=CC(=O)[C@H]1O)[C@H](C)OC2=O (some centres unmarked) [Ro 09-2210]
MEK-1
  IC50: 0.06 µM

## N#CC(=C(/N)Sc1ccccc1N)/C(C#N)=C(\N)Sc1ccccc1N [U0126, 1,4-Diamino-2,3-dicyano-1,4-bis(2-aminophenylthio)butadiene]
HCV [1]
  HCV copies per ml supernatant relative to supernatant of control treated cells: one third
HCV [2]
  level of intracellular HCV RNA per μg total RNA: increased
HCV [3]
  viral entry detected by GFP expression: HCV entered the cells
